Earlier results in US20170369677A1, “MATERIALS FREE OF ENDOCRINE DISRUPTIVE ACTIVITY” (CertiChem, Inc., priority 2006, published 2017).
Read-outs that look alike come from different tables or passages of the source.

Key:
[1] = recommended daily dietary allowance for these antioxidants
[2] = statement in words
ER = conditions: statement in words
[3] = for Carcinogenic or Other Toxic Effects: common pigments used in plastic formulations, Table P-3
[4] = test system: snails, fish, frogs, and rodents

Compound	ADI [1] [mg/kg]	estrogenic or androgenic activity [2]	other results
COc1ccc(O)c(C(C)(C)C)c1 [BHA, Butylated hydroxyanisole]	0 to 0.5	–	–
CC(C)(C)c1cc(O)ccc1O [TBHQ, Tert-Butylhydroquinone]	0 to 0.2	–	–
C[C@]12CC[C@@H]3c4ccc(O)cc4CC[C@H]3[C@@H]1CC[C@@H]2O [17β-estradiol (E2), 17β-estradiol, reference compound]	–	strong estrogen	–
CC(C)(C)c1cc(Cc2cc(C(C)(C)C)c(O)c(C(C)(C)C)c2)cc(C(C)(C)C)c1O [4,4′-methylenebis (2,6-di-t-butylphenol)]	–	–	ER binding activity observed (ER): lack of binding activity
C=CCl [Vinylchloride]	–	–	toxic effects stated in text ([3]; statement in words): other toxic effects
CC(C)(c1ccc(O)cc1)c1ccc(O)cc1 [Bisphenol A]	–	deleterious estrogenic activity	levels in human umbilical cords: 0.2 to 2 µg/kg; dose at which deleterious developmental changes have been reported [4]: 0.5 to 2 µg/kg/day; dose at which deleterious developmental changes have been reported ([4]; listed as bisphenol A): 0.5 to 2 µg/kg/day
CCCOC(=O)c1cc(O)c(O)c(O)c1 [Propyl gallate]	0 to 2.5	–	–
[O]=[Mo](=[O])([O-])[O-].[Pb+2] [Lead molybdate]	–	–	Carcinogenic or Other Toxic Effects [3]: Yes
CC(=O)[C@H]1CC[C@H]2[C@@H]3CCC4=CC(=O)CC[C@]4(C)[C@H]3CC[C@]12C [progesterone]	–	androgenic, but no known estrogenic, activity	–
O=C(O)c1ccc(C(=O)O)cc1 [Terephthalic, terephthalic acid]	–	deleterious estrogenic activity	–
C[C@]12CCC(=O)C[C@@H]1CC[C@@H]1[C@@H]2CC[C@]2(C)[C@@H](O)CC[C@@H]12 [DHT, 5a-dihydrotestosterone, reference compound]	–	strong androgen	–
CC(C)CCC[C@@H](C)[C@H]1CC[C@H]2[C@@H]3CC=C4C[C@@H](O)CC[C@]4(C)[C@H]3CC[C@]12C [Cholesterol]	–	little or no known estrogenic or androgenic activity	–
C=C [Ethylene]	–	no known estrogenic activity or other deleterious effects	–
Tocopherols	0.15 to 2	–	–
Cc1cc(C(C)(C)C)c(O)c(C(C)(C)C)c1 [BHT, Butylated hydroxytoulene]	0 to 0.125	has estrogenic activity	–
[C-]#N.[C-]#N.[C-]#N.[C-]#N.[C-]#N.[C-]#N.[Fe+2].[Fe+3].[NH4+] [Ferric amonimum, ferric amonimum ferrocyanide]	–	–	Carcinogenic or Other Toxic Effects [3]: Yes
